Tested on: calcium channel (e.g., L-type, N-type, etc.)
Experiment: HEK assay, whole-cell patch clamp of transiently transfected HEK-293T/17 cells
Format: cell-based
Settings: whole-cell voltage clamp, holding potential −100 mV
Procedure: HEK-293T/17 cells are transiently transfected in a similar manner as described in FuGENE 6 Package Insert Version 7, April 2002, Roche Applied Science, Indianapolis, Ind. The cells are plated at 2.5×10^5 cells in 2 mL in a 6-well plate in incubator for one night and achieve a 30˜40% confluence. In a small sterile tube, add sufficient serum-free medium as diluent for FuGENE Transfection Reagent (Roche Applied Science, Indianapolis, Ind.), to a total volume of 100 μL. Add 3 μL of FuGENE 6 Reagent directly into this medium. The mixture is tapped gently to mix. 2 μg of DNA solution (0.8-2.0 μg/μL) is added to the prediluted FuGENE 6 Reagent from above. The DNA/Fugene 6 mixture is gently pipeted to mix the contents and incubated for about 15 minutes at room temperature. The complex mixture is then added to the HEK-293T/17 cells, distributing it around the well, and swirled to ensure even dispersal. The cells are returned to the incubator for 24 hrs. The transfected cells are then replated at density 2.5×10^5 in a 35 mm dish with 5 glass coverslips and grow in low serum (1%) media for 24 hrs. Coverslips with isolated cells are then transferred into chamber and calcium channel (e.g., L-type, N-type, etc.) current or other currents for counter screening are recorded from the transiently transfected HEK-293T/17 cells. […]

| SMILES | IC50 |
| --- | --- |
| CN(Cc1nc(CNc2ccc(F)cc2)cn1-c1ccc(Cl)cc1)c1ccc(F)cc1 [Compound 5] | 135 nM |
| CN(Cc1nc(CN2CCCC2)cn1-c1ccc(Cl)cc1)c1ccc(F)cc1 [Compound 6] | 2690 nM |
